Results as given in ChEMBL document CHEMBL2380246, “Structure-activity relationships of hybrid annonaceous acetogenins: powerful growth inhibitory effects of their connecting groups between heterocycle and hydrophobic carbon chain bearing THF ring on human cancer cell lines” (2013).

Key:
Format in all cases: functional
St-4 = assay: Growth inhibition of human St-4 cells after 48 hrs by sulforhodamine B assay; conditions: St-4, 48 h
OVCAR-5 = assay: Growth inhibition of human OVCAR5 cells after 48 hrs by sulforhodamine B assay; conditions: OVCAR-5, 48 h
SF-539 = assay: Growth inhibition of human SF539 cells after 48 hrs by sulforhodamine B assay; conditions: SF-539, 48 h
NCI-H460 = assay: Growth inhibition of human NCI-H460 cells after 48 hrs by sulforhodamine B assay; conditions: NCI-H460, 48 h
OVCAR-3 = assay: Growth inhibition of human OVCAR3 cells after 48 hrs by sulforhodamine B assay; conditions: OVCAR-3, 48 h
[1] = Growth inhibition of human MKN1 cells after 48 hrs by sulforhodamine B assay; conditions: MKN-1, 48 h
[2] = Growth inhibition of human HBC5 cells after 48 hrs by sulforhodamine B assay; conditions: HBC5, 48 h
SNB-75 = assay: Growth inhibition of human SNB75 cells after 48 hrs by sulforhodamine B assay; conditions: SNB-75, 48 h
SF-295 = assay: Growth inhibition of human SF295 cells after 48 hrs by sulforhodamine B assay; conditions: SF-295, 48 h
HCT-15 = assay: Growth inhibition of human HCT15 cells after 48 hrs by sulforhodamine B assay; conditions: HCT-15, 48 h
SNB-78 = assay: Growth inhibition of human SNB78 cells after 48 hrs by sulforhodamine B assay; conditions: SNB-78, 48 h
U-251 = assay: Growth inhibition of human U251 cells after 48 hrs by sulforhodamine B assay; conditions: U-251, 48 h
NCI-H522 = assay: Growth inhibition of human NCI-H522 cells after 48 hrs by sulforhodamine B assay; conditions: NCI-H522, 48 h
MKN-45 = assay: Growth inhibition of human MKN45 cells after 48 hrs by sulforhodamine B assay; conditions: MKN-45, 48 h
[3] = Growth inhibition of human HCC2998 cells after 48 hrs by sulforhodamine B assay; conditions: HCC 2998, 48 h
DMS-273 = assay: Growth inhibition of human DMS273 cells after 48 hrs by sulforhodamine B assay; conditions: DMS-273, 48 h
[4] = Growth inhibition of human RXF631L cells after 48 hrs by sulforhodamine B assay; conditions: RXF 631, 48 h
DU-145 = assay: Growth inhibition of human DU145 cells after 48 hrs by sulforhodamine B assay; conditions: DU-145, 48 h
NCI-H23 = assay: Growth inhibition of human NCI-H23 cells after 48 hrs by sulforhodamine B assay; conditions: NCI-H23, 48 h
OVCAR-8 = assay: Growth inhibition of human OVCAR8 cells after 48 hrs by sulforhodamine B assay; conditions: OVCAR-8, 48 h
[5] = Growth inhibition of human HBC4 cells after 48 hrs by sulforhodamine B assay; conditions: HBC4, 48 h
ACHN = assay: Growth inhibition of human ACHN cells after 48 hrs by sulforhodamine B assay
SF-268 = assay: Growth inhibition of human SF268 cells after 48 hrs by sulforhodamine B assay; conditions: SF-268, 48 h
MCF7 = assay: Growth inhibition of human MCF7 cells after 48 hrs by sulforhodamine B assay; conditions: MCF7, 48 h
MDA-MB-231 = assay: Growth inhibition of human MDA-MB-231 cells after 48 hrs by sulforhodamine B assay; conditions: MDA-MB-231, 48 h
A549 = assay: Growth inhibition of human A549 cells after 48 hrs by sulforhodamine B assay; conditions: A549, 48 h
KM12 = assay: Growth inhibition of human KM12 cells after 48 hrs by sulforhodamine B assay; conditions: KM12, 48 h
HT-29 = assay: Growth inhibition of human HT-29 cells after 48 hrs by sulforhodamine B assay; conditions: HT-29, 48 h
NCI-H226 = assay: Growth inhibition of human NCI-H226 cells after 48 hrs by sulforhodamine B assay; conditions: NCI-H226, 48 h
OVCAR-4 = assay: Growth inhibition of human OVCAR4 cells after 48 hrs by sulforhodamine B assay; conditions: OVCAR-4, 48 h
PC-3 = assay: Growth inhibition of human PC3 cells after 48 hrs by sulforhodamine B assay; conditions: PC-3, 48 h
MKN-74 = assay: Growth inhibition of human MKN74 cells after 48 hrs by sulforhodamine B assay; conditions: MKN-74, 48 h
SK-OV-3 = assay: Growth inhibition of human SKOV3 cells after 48 hrs by sulforhodamine B assay; conditions: SK-OV-3, 48 h
LOX IMVI = assay: Growth inhibition of human LOXIMVI cells after 48 hrs by sulforhodamine B assay
[6] = Growth inhibition of human BSY1 cells after 48 hrs by sulforhodamine B assay; conditions: BSY-1, 48 h
HCT-116 = assay: Growth inhibition of human HCT116 cells after 48 hrs by sulforhodamine B assay; conditions: HCT-116, 48 h
DMS-114 = assay: Growth inhibition of human DMS114 cells after 48 hrs by sulforhodamine B assay; conditions: DMS-114, 48 h
MKN-28 = assay: Growth inhibition of human MKN28 cells after 48 hrs by sulforhodamine B assay; conditions: MKN-28, 48 h
MKN-7 = assay: Growth inhibition of human MKN7 cells after 48 hrs by sulforhodamine B assay; conditions: MKN-7, 48 h

SMILES	GI50 (St-4)	GI50 (OVCAR-5)	GI50 (SF-539)	GI50 (NCI-H460)	GI50 (OVCAR-3)	GI50 [1]	GI50 [2]	GI50 (SNB-75)	GI50 (SF-295)	GI50 (HCT-15)	GI50 (SNB-78)	GI50 (U-251)	GI50 (MKN-45)	GI50 [3]	GI50 (DMS-273)	GI50 [4]	GI50 (DU-145)	GI50 (OVCAR-8)	GI50 [5]	GI50 (ACHN)	further results
CCCCCCCCCCCC[C@@H](O)[C@H]1CC[C@H]([C@H](O)CCCCCCCCCCNC(=O)c2ccnn2C)O1	18.2 µM	> 100 µM	3.72 µM	8.13 µM	77.6 µM	43.7 µM	17 µM	50.1 µM	10 µM	> 100 µM	> 100 µM	> 100 µM	7.41 µM	> 100 µM	5.75 µM	> 100 µM	> 100 µM	30.9 µM	> 100 µM	24 µM	GI50 (NCI-H522): 1.41 µM; GI50 (NCI-H23): 0.0525 µM; GI50 (SF-268): > 100 µM; GI50 (MCF7): 3.24 µM; GI50 (MDA-MB-231): 8.51 µM; GI50 (A549): 12.9 µM; GI50 (KM12): > 100 µM; GI50 (HT-29): > 100 µM; GI50 (NCI-H226): 40.7 µM; GI50 (OVCAR-4): 22.9 µM; GI50 (PC-3): 18.2 µM; GI50 (MKN-74): 3.89 µM; GI50 (SK-OV-3): > 100 µM
CCCCCCCCCCCC[C@@H](O)[C@H]1CC[C@H]([C@H](O)CCCCCCCCCCCCc2ccnn2C)O1	64.6 µM	> 100 µM	37.2 µM	> 100 µM	> 100 µM	> 100 µM	69.2 µM	> 100 µM	24 µM	> 100 µM	> 100 µM	> 100 µM	> 100 µM	79.4 µM	49 µM	> 100 µM	> 100 µM	> 100 µM	> 100 µM	87.1 µM	GI50 (LOX IMVI): > 100 µM; GI50 [6]: 32.4 µM; GI50 (NCI-H522): 3.8 µM; GI50 (HCT-116): 9.12 µM; GI50 (DMS-114): 0.55 µM; GI50 (MKN-28): 4.37 µM; GI50 (NCI-H23): 0.912 µM; GI50 (SF-268): > 100 µM; GI50 (MCF7): 26.9 µM; GI50 (MDA-MB-231): 32.4 µM; GI50 (A549): 30.9 µM; GI50 (KM12): 70.8 µM; GI50 (MKN-7): 6.17 µM; GI50 (HT-29): 75.9 µM; GI50 (NCI-H226): 52.5 µM; GI50 (OVCAR-4): 37.2 µM; GI50 (PC-3): > 100 µM; GI50 (MKN-74): 22.9 µM; GI50 (SK-OV-3): 77.6 µM
CCCCCCCCCCCC[C@@H](O)[C@H]1CC[C@H]([C@H](O)CCCCCCCCCCCCC2=C[C@H](C)OC2=O)O1 [REL-SOLAMIN]	> 100 µM	> 100 µM	> 100 µM	> 100 µM	> 100 µM	> 100 µM	> 100 µM	> 100 µM	39.8 µM	> 100 µM	> 100 µM	> 100 µM	> 100 µM	> 100 µM	> 100 µM	> 100 µM	> 100 µM	> 100 µM	> 100 µM	> 100 µM	GI50 (LOX IMVI): 28.8 µM; GI50 [6]: > 100 µM; GI50 (HCT-116): > 100 µM; GI50 (DMS-114): 4.27 µM; GI50 (SF-268): > 100 µM; GI50 (MDA-MB-231): > 100 µM; GI50 (A549): > 100 µM; GI50 (KM12): > 100 µM; GI50 (HT-29): > 100 µM; GI50 (NCI-H226): > 100 µM; GI50 (OVCAR-4): > 100 µM; GI50 (PC-3): > 100 µM; GI50 (MKN-74): > 100 µM; GI50 (SK-OV-3): > 100 µM
CCCCCCCCCCCC[C@@H](O)[C@H]1CC[C@H]([C@H](O)CCCCCCCCCCC(=O)Nc2ccnn2C)O1	> 100 µM	> 100 µM	> 100 µM	> 100 µM	> 100 µM	> 100 µM	> 100 µM	> 100 µM	57.5 µM	> 100 µM	> 100 µM	> 100 µM	> 100 µM	> 100 µM	> 100 µM	> 100 µM	> 100 µM	> 100 µM	> 100 µM	> 100 µM	GI50 (LOX IMVI): > 100 µM; GI50 [6]: 95.5 µM; GI50 (NCI-H522): 28.8 µM; GI50 (HCT-116): 64.6 µM; GI50 (DMS-114): 3.31 µM; GI50 (MKN-28): 18.2 µM; GI50 (NCI-H23): 26.9 µM; GI50 (SF-268): > 100 µM; GI50 (MCF7): > 100 µM; GI50 (MDA-MB-231): > 100 µM; GI50 (A549): > 100 µM; GI50 (KM12): > 100 µM; GI50 (MKN-7): 20.9 µM; GI50 (HT-29): > 100 µM; GI50 (NCI-H226): 75.9 µM; GI50 (OVCAR-4): > 100 µM; GI50 (PC-3): > 100 µM; GI50 (MKN-74): > 100 µM; GI50 (SK-OV-3): > 100 µM
